Consider 1 molecule from patent US20100016435A1, “HYBRID MOLECULES HAVING MIXED VITAMIN D RECEPTOR AGONISM AND HISTONE DEACETYLASE INHIBITORY PROPERTIES” (McGill University, priority 2006, published 2010).

The subject of test [1] is SCC4 cells. Nature of the test: Antiproliferative activity in SCC4 cells. The settings on record: 3 alone, data not shown.
Another test concerns SCC25 cells. Nature of the test: Antiproliferative activity in SCC25 cells. The test is classed as cell-based. The note with it: 1 at 1 nM or 100 nM; 3 15 nM; combination 3 with 100 nM 1; FIG. 7B.
The subject of the next test is histone H4. In words: Histone H4 acetylation, Western blot. In kind it is cell-based, human. The note with it: SCC4 cells, 6 h. The source says: (§1) FIG. 4 is an illustration of the HDAC inhibitory activity of 3 in the SCC4 cell line. FIG. 4A is an illustration of a western blot of nuclear and cytoplasmic extracts of SCC4 cells treated with vehicle (−), 1, or 3 alone or in combination, as indicated. The 55 kDa band corresponds to the molecular weight of tubulin. FIG. 4B illustrates a western blot probed with an antibody directed against acetylated histone H4 (AcH4) showing the effects of the treatments described in A on acetylation of histone H4. FIG. 4C illustrates western blots of the effects of treatments described in A on levels of total alpha-tubulin (left) and acetylated alpha-tubulin (right).
(§2) In preliminary experiments, TSA-inducible protein acetylation was analyzed in nuclear and cytoplasmic extracts of SCC4 cells treated for 6 h with 1, 3, or 1 and 3 and subsequently probed by Western blotting for protein acetylation using an anti-acetyllysine antibody. […] Effects of 3 on histone acetylation specifically, were confirmed by probing for acetylation of histone H4 (FIG. 4B). […] However, it was not clear whether this corresponded to enhanced expression or acetylation. […] This was confirmed by probing cytoplasmic fractions with an antibody that recognized α-tubulin (FIG. 4C). Calcitriol (1) had no effect on the acetylation of α-tubulin, and none of the treatments had any substantial effect on total α-tubulin expression (FIG. 4C).
On the technique in general: A western blot detects proteins with antibodies after separation by electrophoresis.

In test [2] the test system is SCC4 cells. Nature of the test: Acidic β-galactosidase activity (marker of autophagy), X-Gal staining and 620 nm measurement. The settings on record: qualitative, FIG. 10A. The test is classed as cell-based, human. The source says: FIG. 10 is an illustration of the effects of 1, 3, 1+3 and 6 on the induction of acidic β-galactosidase activity, a marker of autophagy (A); FIG. 10 is an illustration of the effects 1, 3, 1+3 and 6 on the levels of β-galactosidase expression as obtained by measuring the indigo cleavage product of X-Gal at 620 nm (B).
Since it was observed that treatment with 1 could enhance cell death by autophagy (ref. 26), the effects of different treatments on the induction of acidic β-galactosidase activity, a marker of autophagy (FIG. 10A) was tested.

In test [3] the test system is SCC4 cells. Nature of the test: Protein acetylation in nuclear and cytoplasmic extracts, Western blot with anti-acetyllysine antibody. In kind it is cell-based, human. The settings on record: 6 h.
Text: as §1, §2

The target of another test is T1, human VDR (Homo sapiens, UniProt P11473).
T1 construct: expressed in transfected cells; host or cells: COS7
T1 sequence (P11473 1-427): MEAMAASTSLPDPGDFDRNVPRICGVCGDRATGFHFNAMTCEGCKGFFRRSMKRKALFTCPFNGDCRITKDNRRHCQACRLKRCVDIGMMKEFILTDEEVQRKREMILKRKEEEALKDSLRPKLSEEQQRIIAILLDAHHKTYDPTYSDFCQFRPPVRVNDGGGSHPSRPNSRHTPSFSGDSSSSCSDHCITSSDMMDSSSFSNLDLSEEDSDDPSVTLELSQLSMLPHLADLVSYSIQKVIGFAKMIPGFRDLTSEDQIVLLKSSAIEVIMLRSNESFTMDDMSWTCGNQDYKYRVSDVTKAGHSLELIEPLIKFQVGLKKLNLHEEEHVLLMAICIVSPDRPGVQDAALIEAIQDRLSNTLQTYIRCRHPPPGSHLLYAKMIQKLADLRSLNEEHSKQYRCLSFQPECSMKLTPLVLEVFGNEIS
In words: Reporter gene assay (VDRE-luciferase) in transiently transfected COS7 cells. In kind it is cell-based. As for the experimental part:
FIG. 2 is an illustration of the vitamin D receptor agonist activity of 6 using a reporter gene assay in transiently transfected COS7 cells.
Hybrid molecule 6 was tested for calcitriol agonist activity using a reporter gene assay under standard conditions.^25,26 COS7 cells were transiently co-transfected with a plasmid expression vector for the human VDR, a plasmid vector expressing bacterial β-galactosidase from a constitutively active promoter (as an internal control for transfection efficiency), and a vector containing a luciferase reporter gene, under control of a previously described synthetic promoter composed of three high affinity VDREs (Vitamin D Response Elements) placed immediately upstream of a truncated promoter region from the herpes simplex virus thymidine kinase gene.^25 Cells were left overnight in the presence of DNA and transfection reagent (lipofectamine). The media were changed and cells were incubated in fresh media containing either vehicle (DMSO), 1 (100 nM), 3 (15 nM), 1 and 3 combined (100 nM/15 nM) or 6 (100 nM), and incubated a further 36 h.

For a further test, the system named is α-tubulin. In words: α-Tubulin acetylation in SCC4 cells, Western blot. The note with it: 3 15 nM; 36 or 39 10^−6 or 10^−7M; 6 h or 24 h, FIG. 6C. The test is classed as cell-based, human.
Text: as §1
FIG. 6 is a comparison of the HDAC inhibitory activities of 1, 3, 6, 36 or 39 as assessed by their effects on acetylation of alpha-tubulin. In A, SCC4 cells were incubated with vehicle or compound 1 (10^−6M), 3 (15 nM), 6 (10^−6M) and 36 (10^−6M), as indicated for 6 h and protein extracts were probed for total α-tubulin (Tub.) or acetylated α-tubulin (AcTub.) by Western blotting. Blots for acetylated alpha-tubulin and total alpha-tubulin are shown. In B, SCC4 cells were incubated with vehicle or compound 3 (15 nM), 6 (10^−6M) or 36 (10^−6M) as indicated for 6 h or 24 h and protein extracts were probed for acetylated α-tubulin (AcTub.) by Western blotting. In C, SCC4 cells were incubated with vehicle or compounds 3 (15 nM), 36 (10^−6 or 10^−7M) or 39 (10^−6 or 10^−7M) as indicated for 6 h or 24 h and protein extracts were probed for total α-tubulin (tub.) or acetylated α-tubulin (AcTub.) by Western blotting.
as §2
SCC4 cells were incubated with vehicle or compound as indicated for 6 h and cytoplasmic protein extracts were probed by Western blotting using a specific antibody for acetylated α-tubulin.

The target of the next test is HDAC6 (Homo sapiens, UniProt Q9UBN7). The settings on record: cited from earlier work.
Test [4] has as its system SCC4 cells. In words: Immunocytochemical and morphological analysis (mitotic catastrophe). In kind it is cell-based, human. The text has this: FIG. 12 is an illustration of the immunocytochemical analysis of the effects of 1, 3, or 1 and 3 combined on SCC4 cells (A). […] Both phenotypes are characteristics of mitotic catastrophe. The lower panels (B) show cytoplasmic bridges between SCC4 cells treated with 1 and 3, consistent with the formation of the tubulin bridges seen above in A.
Assembly into microtubules is regulated by acetylation. […] Previous studies have shown that microtubule stabilizing agents can induce mitotic catastrophe (ref. 30). […] The formation of intercellular microtubular structures was consistent with observations in the light microscope of numerous intercellular bridges in cells treated with both 1 and 3 (FIG. 12B, arrows), but not in other treatment groups (not shown).

HDAC6, sequence (Q9UBN7 whole entry, species assumed): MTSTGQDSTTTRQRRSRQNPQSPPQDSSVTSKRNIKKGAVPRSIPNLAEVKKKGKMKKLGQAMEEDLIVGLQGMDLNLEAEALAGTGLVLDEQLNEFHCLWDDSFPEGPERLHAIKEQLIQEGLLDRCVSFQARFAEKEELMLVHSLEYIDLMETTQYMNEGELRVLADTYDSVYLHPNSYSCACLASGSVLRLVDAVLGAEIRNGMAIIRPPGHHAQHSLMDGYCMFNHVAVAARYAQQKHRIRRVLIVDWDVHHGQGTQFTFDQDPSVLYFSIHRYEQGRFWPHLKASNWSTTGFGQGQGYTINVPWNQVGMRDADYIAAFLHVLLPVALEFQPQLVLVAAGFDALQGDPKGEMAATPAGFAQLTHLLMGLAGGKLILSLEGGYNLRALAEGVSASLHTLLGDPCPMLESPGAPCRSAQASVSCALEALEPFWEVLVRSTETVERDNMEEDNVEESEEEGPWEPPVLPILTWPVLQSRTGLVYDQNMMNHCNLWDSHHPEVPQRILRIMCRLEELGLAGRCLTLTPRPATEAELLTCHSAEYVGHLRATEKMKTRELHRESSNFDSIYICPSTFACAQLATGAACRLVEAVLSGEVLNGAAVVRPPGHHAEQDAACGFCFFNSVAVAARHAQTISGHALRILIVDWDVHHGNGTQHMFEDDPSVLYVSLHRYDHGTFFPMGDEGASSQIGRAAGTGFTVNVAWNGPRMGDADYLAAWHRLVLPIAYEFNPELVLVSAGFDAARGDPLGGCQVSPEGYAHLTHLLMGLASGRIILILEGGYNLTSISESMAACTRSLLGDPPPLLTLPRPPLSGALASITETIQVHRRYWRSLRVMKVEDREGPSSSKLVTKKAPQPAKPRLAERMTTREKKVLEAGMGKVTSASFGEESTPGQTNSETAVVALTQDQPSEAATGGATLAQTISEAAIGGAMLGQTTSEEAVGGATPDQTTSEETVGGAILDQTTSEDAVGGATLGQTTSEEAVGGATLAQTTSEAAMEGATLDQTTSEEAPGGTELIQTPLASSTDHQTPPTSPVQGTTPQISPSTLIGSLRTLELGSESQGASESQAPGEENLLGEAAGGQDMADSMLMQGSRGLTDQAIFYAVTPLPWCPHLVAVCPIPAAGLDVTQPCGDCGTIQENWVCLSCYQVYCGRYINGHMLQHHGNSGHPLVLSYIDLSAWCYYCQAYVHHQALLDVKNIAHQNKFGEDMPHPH
Text for SCC25 cells: FIG. 7 is an illustration of the antiproliferative activities of 1 and 3, individually or in combination, in SCC4 cells (A) or in SCC25 cells (B) at the concentrations indicated.

`CC(/C=C/C(=O)NO)=C\[C@@H](C)C(=O)c1ccc(N(C)C)cc1` [compound 3, trichostatin A]: the SCC4 proliferation result in the test with SCC4 cells [1] (50 nM) is “completely inhibited”. In addition, the cell death result in the test on SCC4 cells [1] (concentrations higher than 50 nM) is “substantial cell death”. Also, the “SCC25 proliferation / sensitivity” value with SCC25 cells is recorded as “substantially less sensitive”. Further, the “histone H4 acetylation” value with histone H4 was “markedly enhanced”. Besides, the “acidic β-galactosidase staining (X-Gal, pH 4.0), cytochemical” value in the test with SCC4 cells [2] is on record as “weak or relatively modest effects”. In addition, in the test with SCC4 cells [3] (cytoplasmic extracts), the “acetylation of a 55 kDa protein, likely tubulin” value is recorded as “markedly enhanced”. In the test on SCC4 cells [3] (nuclear extracts), the “acetylation of low molecular weight nuclear proteins” value was “markedly enhanced”. Also, at human VDR (COS7, 36 h, 1 100 nM, 3 15 nM, 6 100 nM, not normalized), the “reporter gene activity (calcitriol agonist activity)” value is “no substantial effect”. Besides, the “expression from the internal control plasmid (β-galactosidase)” value on human VDR (COS7 cells) was “modestly affects expression”. In addition, the “levels of acetylated alpha-tubulin normalized for total alpha-tubulin” value in the test on α-tubulin is on record as “Elevated levels”. Moreover, the HDAC6 activity result at HDAC6 is listed as “can be blocked”. The cell morphology result with SCC4 cells [4] (FIG. 12) was “did not differ from control cells”. Moreover, the “induction of mitotic catastrophe” value in the test with SCC4 cells [4] (SCC4 cells) is reported as “not 1 or 3 alone”.
